Data on two compounds can be found in paper PMC10399197, “Insights into Enzymatic Catalysis from Binding and Hydrolysis of Diadenosine Tetraphosphate by E. coli Adenylate Kinase” (Biochemistry, 2023).

The structures appear in SMILES notation.

In general, Kd refers to the constant that tells how readily two partners part at equilibrium. Read a high Kd as a looser complex.

Assay [1] deals with T1, adenylate kinase (AdK) (Escherichia coli, UniProt P69441). In words: X-ray crystal structure at […] Å (AdK cocrystallized with AP4A; two ADP molecules modeled). In kind it is binding.
T1 sequence (P69441 whole entry): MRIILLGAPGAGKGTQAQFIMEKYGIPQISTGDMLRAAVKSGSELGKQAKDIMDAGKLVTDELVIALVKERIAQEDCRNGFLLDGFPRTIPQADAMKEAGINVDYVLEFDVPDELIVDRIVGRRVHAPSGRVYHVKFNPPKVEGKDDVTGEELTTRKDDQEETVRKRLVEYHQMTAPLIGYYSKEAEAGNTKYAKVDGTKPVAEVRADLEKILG
Assay [2] addresses T1, adenylate kinase (AdK). In words: Kd (Figure S1; ITC in the Supporting Information); also 1H-15N HSQC NMR, DEER EPR and […] NMR hydrolysis. The format is binding. Details: wild-type AdK.

As to `Nc1ncnc2c1ncn2[C@@H]1O[C@H](COP(=O)(O)OP(=O)(O)O)[C@@H](O)[C@H]1O` [ADP], the “X-ray crystal structure at 1.49 Å (AdK cocrystallized with AP4A); two ADP molecul” value on adenylate kinase (AdK) [1] was “the crystals trapped AdK in the closed conformation in complex with two ADP molecules”. Compound `Nc1ncnc2c1ncn2[C@@H]1O[C@H](COP(=O)(O)OP(=O)(O)OP(=O)(O)OP(=O)(O)OC[C@H]2O[C@@H](n3cnc4c(N)ncnc43)[C@H](O)[C@@H]2O)[C@@H](O)[C@H]1O` [AP4A] yielded a dissociation constant (Kd) at adenylate kinase (AdK) [2] of 14 µM.
